Source: patent US11028051B2, “Tetrahydroquinoline-based bromodomain inhibitors” (St. Jude Children's Research Hospital, priority 2016, dated 2021)
Read-outs that look alike come from different tables or passages of the source.

What was measured:
Assay in all cases: competitive TR-FRET assay, BET-BD with acetylated peptide ligand
Assay type in all cases: binding
[1] = target: BRD2-BD1 (Homo sapiens (Human), UniProt P25440); conditions: BRD2-BD1; Table 11 additional modifications; read-out: 2.1 EC50
Sequence of BRD2-BD1 (P25440 74-180): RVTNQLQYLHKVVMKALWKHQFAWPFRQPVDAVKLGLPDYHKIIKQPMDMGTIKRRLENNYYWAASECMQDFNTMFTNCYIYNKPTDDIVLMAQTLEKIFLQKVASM
Experimental: (§1) Inhibitor potency was determined using a competitive TR-FRET assay as detailed herein, measuring interaction of the respective BET-BD with an acetylated peptide ligand (Table 2).

[2] = target: BRD2-BD2 (Homo sapiens (Human), UniProt P25440); conditions: for EC50: Table 11 additional modifications; for 2.1/2.2: ratio of BRD2-BD1 EC50 to BRD2-BD2 EC50 (selectivity)
Sequence of BRD2-BD2 (P25440 344-453): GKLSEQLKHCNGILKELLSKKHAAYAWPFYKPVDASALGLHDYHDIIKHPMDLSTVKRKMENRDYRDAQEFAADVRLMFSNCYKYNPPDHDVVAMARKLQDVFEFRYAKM
Experimental: as §1

[3] = target: BRDT (Homo sapiens, UniProt Q58F21); conditions: BRDT; Table 11 additional modifications; read-out: BRDT EC50
Experimental: as §1

[4] = target: BRD3-BD1 (Homo sapiens (Human), UniProt Q15059); conditions: BRD3-BD1; Table 11 additional modifications; read-out: 3.1 EC50
Sequence of BRD3-BD1 (Q15059 34-140): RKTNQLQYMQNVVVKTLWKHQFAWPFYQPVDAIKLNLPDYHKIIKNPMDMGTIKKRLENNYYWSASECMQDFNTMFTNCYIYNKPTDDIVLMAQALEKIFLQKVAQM
Experimental: as §1

Row | EC50 [1] [nM] | EC50 ([2]; BRD2-BD2, read-out: 2.2 EC50) [nM] | 2.1/2.2 [2] | SMILES | other results
1 | 1100 | 70 | 16 | CC(=O)Nc1cccc(-c2ccc3c(c2)[C@H](Nc2ccc(C(C)=O)cc2)C[C@H](C)N3C(C)=O)c1 [compound 17] | EC50 [3]: 4600 nM
2 | 1900 | 360 | 5.3 | CC(=O)Nc1ccc(-c2ccc3c(c2)[C@H](Nc2ccc(Cl)cc2)C[C@H](C)N3C(C)=O)cc1 [compound 48] | EC50 [4]: 1900 nM; EC50 [3]: 5300 nM
3 |  |  | 2.9 | CC(=O)Nc1cccc(-c2ccc3c(c2)[C@H](NC2CCN(C)CC2)C[C@H](C)N3C(C)=O)c1 [compound 119] | 
4 |  |  | 33 | CC(=O)Nc1cccc(-c2ccc3c(c2)[C@H](Nc2ccc(NC(=O)CO)cc2)C[C@H](C)N3C(C)=O)c1 [compound 121] | 
5 |  |  | 70 | CC(=O)N(c1ccc(NCC2CC2)cc1)[C@@H]1C[C@H](C)N(C(C)=O)c2ccc(-c3cccc(NC(=O)OC(C)(C)C)c3)cc21 [compound 122] | 
6 |  |  | >1000 | CC(=O)Nc1cccc(-c2ccc3c(c2)[C@H](Nc2ccc(NC(=O)C4CC4)cc2)C[C@H](C)N3C(C)=O)c1 [compound 123] | 
7 |  |  | 4.0 | CC(=O)N(c1ccc(NCCC(C)C)cc1)[C@@H]1C[C@H](C)N(C(C)=O)c2ccc(-c3cccc(NC(=O)OC(C)(C)C)c3)cc21 [compound 124] | 
8 |  |  | 9.4 | COC(=O)c1ccc(N[C@@H]2C[C@H](C)N(C(C)=O)c3ccc(-c4c[nH]cn4)cc32)cc1 [compound 156] | 
9 |  |  | 52 | COC(=O)c1ccc(N[C@@H]2C[C@H](C)N(C(C)=O)c3ccc(-c4cn(C)cn4)cc32)cc1 [compound 157] | 
10 |  |  | 11 | COC(=O)c1ccc(CN(Cc2ccc(C(=O)OC)cc2)[C@@H]2C[C@H](C)N(C(C)=O)c3ccc(-c4cccc(NC(C)=O)c4)cc32)cc1 [compound 158] | 
11 |  |  | 2.9 | COC(=O)c1ccc(CN[C@@H]2C[C@H](C)N(C(C)=O)c3ccc(-c4cccc(NC(C)=O)c4)cc32)cc1 [compound 159] | 
12 |  |  | 21 | CC(=O)Nc1cccc(-c2ccc3c(c2)[C@H](Nc2ccc(C(=O)COC(C)=O)cc2)C[C@H](C)N3C(C)=O)c1 [compound 162] | 
13 |  |  | 6.7 | CC(=O)Nc1cccc(-c2ccc3c(c2)[C@H](Nc2cccc(CN)c2)C[C@H](C)N3C(C)=O)c1 [compound 163] | 
14 |  |  | 22 | COc1cccc(NC2CCN(C(C)=O)c3ccc(-c4cccc(NC(C)=O)c4)cc32)c1 (stereo not drawn) [compound 178] | 
15 |  |  | 13 | CC(=O)N1c2ccc(-c3cccc(NCCC(F)(F)F)c3)cc2[C@H](Nc2ccc(C#N)cc2)C[C@@H]1C [compound 180] | 
16 | 8000 | 170 | 8.4 | CC(=O)Nc1cccc(-c2ccc3c(c2)[C@H](Nc2cccc(C(F)(F)F)c2)C[C@H](C)N3C(C)=O)c1 [compound 181] | 
17 |  |  | 23 | CC(=O)N1c2ccc(-c3ccn(C)n3)cc2[C@H](Nc2ccc(C#N)cc2)C[C@@H]1C [compound 182] | 
18 |  |  | 27 | CC(=O)N1c2ccc(-c3cccc(NCC4CCOC4)c3)cc2[C@H](Nc2ccc(C#N)cc2)C[C@@H]1C (stereo partly drawn) [compound 183] | 
19 | 670 | 110 | 14 | CC(=O)N1c2ccc(-c3cccc(NC(=O)C(C)C)c3)cc2[C@H](Nc2ccc(C#N)cc2)C[C@@H]1C [compound 184] | 
20 | 1800 | 29 |  | CC(=O)N1c2ccc(-c3cccc(NC(=O)C(C)(C)C)c3)cc2[C@H](Nc2ccc(C#N)cc2)C[C@@H]1C [compound 185] | 

Row | EC50 [1] [nM] | EC50 ([2]; BRD2-BD2, read-out: 2.2 EC50) [nM] | 2.1/2.2 [2] | SMILES | other results
21 | 2100 | 59 |  | CC(=O)Nc1cccc(-c2ccc3c(c2)[C@H](Nc2ccc(C#N)c(Cl)c2)C[C@H](C)N3C(C)=O)c1 [compound 186] | 
22 | 8700 | 120 |  | CC(=O)Nc1cccc(-c2ccc3c(c2)[C@H](Nc2ccccc2Cl)C[C@H](C)N3C(C)=O)c1 [compound 187] | 
23 | 110 | 4 |  | CC(=O)Nc1cccc(-c2ccc3c(c2)[C@H](Nc2ccc4c(c2)CCNC4)C[C@H](C)N3C(C)=O)c1 [compound 188] | 
24 | 670 | 17 | 48 | COc1cc(C#N)ccc1N[C@@H]1C[C@H](C)N(C(C)=O)c2ccc(-c3cccc(NC(C)=O)c3)cc21 [compound 189] | 
25 | 2200 | 120 | 37 | CC(=O)Nc1cccc(-c2ccc3c(c2)[C@H](Nc2cc(F)c(C#N)c(F)c2)C[C@H](C)N3C(C)=O)c1 [compound 190] | 
26 | 1200 | 47 | 26 | COc1cc(N[C@@H]2C[C@H](C)N(C(C)=O)c3ccc(-c4cccc(NC(C)=O)c4)cc32)ccc1C#N [compound 191] | 
27 | 1000 |  | 63 | CC(=O)Nc1cccc(-c2ccc3c(c2)[C@H](Nc2ccc(C#N)c(F)c2)C[C@H](C)N3C(C)=O)c1 [compound 193] | 
28 | 2200 | 60 | 35 | CC(=O)Nc1cccc(-c2ccc3c(c2)[C@H](Nc2ccccc2C#N)C[C@H](C)N3C(C)=O)c1 [compound 194] | 
29 | 870 | 17 | 73 | CC(=O)Nc1cccc(-c2ccc3c(c2)[C@H](Nc2ccc(C#N)c(C)c2)C[C@H](C)N3C(C)=O)c1 [compound 195] | 
30 | 2170 | 60 | 27 | CC(=O)Nc1cccc(-c2ccc3c(c2)[C@H](Nc2ccc(C#N)cc2Cl)C[C@H](C)N3C(C)=O)c1 [compound 196] | 
31 | 3500 | 54 | 39 | CC(=O)Nc1cccc(-c2ccc3c(c2)[C@H](Nc2ccccc2Cl)C[C@H](C)N3C(C)=O)c1 [compound 197] | 
32 | 3300 | 57 | 19 | CC(=O)Nc1cccc(-c2ccc3c(c2)[C@H](Nc2cccc(Cl)c2)C[C@H](C)N3C(C)=O)c1 [compound 198] | 
33 | 890 | 19 | 26 | CC(=O)Nc1cccc(-c2ccc3c(c2)[C@H](Nc2ccc(C#N)cc2C)C[C@H](C)N3C(C)=O)c1 [compound 199] | 
34 | 2000 |  | 92 | CC(=O)Nc1cccc(-c2ccc3c(c2)[C@H](Nc2ccccc2C)C[C@H](C)N3C(C)=O)c1 [compound 200] | 
35 |  |  | 36 | CC(=O)N1c2ccc(-c3cc[nH]n3)cc2[C@H](Nc2ccc(F)c(F)c2)C[C@@H]1C [compound 202] | 
36 |  |  | 51 | CC(=O)N1c2ccc(-c3cc[nH]n3)cc2[C@H](Nc2ccccc2Cl)C[C@@H]1C [compound 203] | 
37 |  |  | 36 | CC(=O)Nc1cccc(-c2ccc3c(c2)[C@H](Nc2ccc(F)cc2Cl)C[C@H](C)N3C(C)=O)c1 [compound 204] | 
38 |  |  | 64 | CC(=O)N1c2ccc(-c3cccc(NC(=O)C(C)(C)C)c3)cc2[C@H](Nc2ccccc2Cl)C[C@@H]1C [compound 205] | 
39 |  |  | 57 | CC(=O)N1c2ccc(-c3cccc(NC(=O)C(C)(C)C)c3)cc2[C@H](Nc2ccc(Cl)cc2)C[C@@H]1C [compound 206] | 
40 |  |  | 44 | CC(=O)N1c2ccc(-c3ccn(-c4ccc(C#N)cc4)n3)cc2[C@H](Nc2ccc(C#N)cc2)C[C@@H]1C [compound 207] | 

Row | SMILES | EC50 [1] [nM] | EC50 ([2]; BRD2-BD2, read-out: 2.2 EC50) [nM] | 2.1/2.2 [2] | other results
41 | CC(=O)Nc1cccc(-c2ccc3c(c2)[C@H](Nc2ccc(C#N)c(C(F)(F)F)c2)C[C@H](C)N3C(C)=O)c1 [compound 192] | 4800 |  | 6.3 | EC50 ([2]; 2.2 EC50, BRD2-BD2): 52 nM
